Columns and labels:
[1] = system: astrocytes; test: Cytotoxicity of the compound by itself to astrocytes (LDH); format: cell-based; conditions: all concentrations tested, 20 h
Procedure: Astrocytes were re-plated at 24-well poly-D-lysine-coated plastic plates at a density of 1×10^5/well, in DMEM w/o Phenol Red containing 2% FBS, 2 mM glutamine, 100 U/mL penicillin, and 100 μg/mL streptomycin. H2O2 in the presence or absence of TTF were added, and cell viability was determined using a commercial colorimetric assay (Roche Applied Science, Germany) according to the manufacturer's instructions. This assay is based on the measurement of lactate dehydrogenase (LDH) activity released from the cytosol of damaged cells into the incubation medium. The absorbance was measured at 492 nm in a plate reader. The percentage of cytotoxicity was calculated according to the following equation, where the “ATriton-x treated cells” is the maximum releasable LDH in the cells:
Astrocytes were treated with different concentrations of TTF and cell death was determined 20 h later by the LDH method. The results are means±SEM of two experiments (n=10) and are shown in FIG. 2C. ***P<0.001, compared to untreated cells.

[2] = system: MMP-9; test: MMP-9 activity in LPS-activated microglial cells (gelatin zymography); format: cell-based, rat; conditions: LPS 4.5 ng/mL, 24 h
From the text: Determination of MMP Activities in Conditioned Media of Microglial Cells. MMP-9 activity was quantified by gelatin zymography.
1. Prepare a primary culture of microglial cells and plate cells as described in “Anti-neuroinflammatory effects of the extract of achillea fragrantissima” 2011. A. Elmann, S. Mordechay, H. Erlank, A. Telerman, M. Rindner, R. Ofir. BMC Complementary and Alternative Medicine. 11:98; 2. Treat cells with freshly diluted AcA of the invention; 3. Activate microglial cells with lipopolysaccharide (LPS, 4.5 nanograms/mL); 4. Measure the levels of MMP-9 by gel zymography as described in “Anti-neuroinflammatory effects of the extract of achillea fragrantissima” 2011. A. Elmann, S. Mordechay, H. Erlank, A. Telerman, M. Rindner, R. Ofir. BMC Complementary and Alternative Medicine. 11:98. 5. […]
Microglial cells were treated with the indicated concentrations of achillolide A, followed by stimulation with LPS (4.5 ng/mL). […] The levels of MMP-9 transcripts were measured by quantitative real-time PCR. The results from three technical replicates were normalized to β-actin and are expressed as relative quantity of MMP-9 transcripts in FIG. 23 B. The results are means±SD of one representative experiment out of three experiments. Cell viability was determined 24 h later by the crystal violet assay. […]

[3] = system: p38; test: H2O2-induced p38 phosphorylation in astrocytes (ELISA); format: cell-based, rat; conditions: astrocytes preincubated 2 h, H2O2 175 μM 40 min
Procedure: Astrocytes were treated with 175 μM of H2O2 for 40 min following preincubation with achillolide A for 2 h. The levels of phosphorylated and total MEK1 (FIG. 40A), phosphorylated and total ERK1/2 (FIG. 40B), phosphorylated SAPK/JNK (FIG. 40C) and phosphorylated p38 (FIG. 40D) were measured by ELISA. The results are means±SEM of two experiments (n=4) for MEK1 and ERK 1/2, one experiment for SAPK/JNK and p38 (n=2). ***p<0.001.

SMILES	cytotoxicity of the flavonoid by itself to astrocytes [1] [%]	effect on LPS-induced MMP-9 activity [2]	effect on H2O2-induced phosphorylation of p38 [3]
COc1cc(-c2oc3cc(OC)c(OC)c(O)c3c(=O)c2O)ccc1O [TTF, 3,5,4′-trihydroxy-6,7,3′-trimethoxyflavone]	< 11		
C=C1CCC2=C(CO)C(=O)O[C@H]2/C=C(\C)[C@H](OC(C)=O)CC1=O [achillolide A]		markedly inhibited	inhibitory effect
